Drawing on ChEMBL document CHEMBL3352273, “Synthesis and biological evaluation of novel thieno[2,3-d]pyrimidine-based FLT3 inhibitors as anti-leukemic agents” (Eur J Med Chem, 2014), this text covers GI50, Retention_time and IC50 for 23 compounds.

In data set [1] the test system is K562. In words: cells. To be noted: Homo sapiens, K562, 48 h.
Description: Growth inhibition of human K562 cells after 48 hrs by XTT assay
The nature of data set [2]: cells. The settings on record: Homo sapiens, THP-1, 48 h.
Description: Growth inhibition of human THP1 cells after 48 hrs by XTT assay
Data set [3] in a line: cells. The settings on record: Homo sapiens, HL-60, 48 h.
Description: Growth inhibition of human HL60 cells after 48 hrs by XTT assay
Data set [4] is described as follows: cells. To be noted: Homo sapiens, MV4-11, 48 h.
Description: Growth inhibition of human MV411 cells after 48 hrs by XTT assay
Data set [5] in a line: Retention time of the compound by HPLC method. It counts as physicochemical.
In data set [6] the target is T1, Receptor-type tyrosine-protein kinase FLT3 (Homo sapiens, UniProt P36888).
T1 sequence (P36888 whole entry): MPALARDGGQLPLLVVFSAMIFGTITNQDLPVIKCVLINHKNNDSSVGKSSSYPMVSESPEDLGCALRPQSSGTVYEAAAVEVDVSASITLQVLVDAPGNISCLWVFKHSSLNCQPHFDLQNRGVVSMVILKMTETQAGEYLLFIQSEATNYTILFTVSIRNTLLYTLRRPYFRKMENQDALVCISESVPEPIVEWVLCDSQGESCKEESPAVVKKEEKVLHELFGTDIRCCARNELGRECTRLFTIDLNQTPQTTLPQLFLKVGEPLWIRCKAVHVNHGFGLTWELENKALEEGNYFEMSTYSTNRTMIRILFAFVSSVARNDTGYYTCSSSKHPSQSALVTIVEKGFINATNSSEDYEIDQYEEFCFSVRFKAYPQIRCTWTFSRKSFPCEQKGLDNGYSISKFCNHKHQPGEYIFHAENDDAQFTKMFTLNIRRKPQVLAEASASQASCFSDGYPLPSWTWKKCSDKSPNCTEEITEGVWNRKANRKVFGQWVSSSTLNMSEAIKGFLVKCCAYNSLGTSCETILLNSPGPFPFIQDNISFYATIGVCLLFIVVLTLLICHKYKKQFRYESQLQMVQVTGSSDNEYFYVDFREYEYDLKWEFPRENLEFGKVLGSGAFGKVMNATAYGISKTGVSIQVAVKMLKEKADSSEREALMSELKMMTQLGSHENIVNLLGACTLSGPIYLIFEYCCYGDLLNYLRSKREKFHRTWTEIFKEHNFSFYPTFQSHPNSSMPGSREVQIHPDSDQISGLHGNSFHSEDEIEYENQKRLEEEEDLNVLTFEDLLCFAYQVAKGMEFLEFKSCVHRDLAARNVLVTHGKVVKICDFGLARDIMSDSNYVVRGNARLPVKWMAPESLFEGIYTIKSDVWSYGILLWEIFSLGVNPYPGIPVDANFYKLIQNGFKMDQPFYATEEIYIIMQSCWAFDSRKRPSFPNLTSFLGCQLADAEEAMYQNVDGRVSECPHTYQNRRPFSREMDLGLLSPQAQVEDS
Description: Inhibition of human FLT3 using 10 uM ATP

In the case of `CC1=CC(=O)N(Nc2nc(-c3cccs3)nc3sc(-c4ccc(O)cc4)c(C)c23)C1=O`, the GI50 in data set [1] amounted to 145 nM; in data set [2], 600 nM; in data set [3], 221 nM; in data set [4], 131 nM. In data set [5], the Retention_time turned out to be 4.93 min.

With `COc1sc2nc(-c3cccs3)nc(NN3C(=O)C=C(C)C3=O)c2c1C`, the 50% growth inhibitory concentration (GI50) in data set [1] is 1460 nM; in data set [2], 906 nM; in data set [3], 240 nM; in data set [4] it was 100 nM. In data set [5], the Retention_time came to 5.61 min.

For `Cl.c1csc(-c2nc(N3CCNCC3)c3c(-c4cccs4)csc3n2)c1`, the GI50 in data set [1], in data set [2], in data set [3] and in data set [4] was above 10000 nM throughout. Also, the Retention_time in data set [5] is on record as 4.39 min.

As for `CC1=CC(=O)N(Nc2nc(-c3cccs3)nc3sc(-c4ccc([N+](=O)[O-])cc4)c(C)c23)C1=O`, the GI50 in data set [1] is 1880 nM; in data set [2] it was 846 nM; in data set [3] it was 418 nM; in data set [4], 112 nM. In data set [5], this compound gave a Retention_time of 9.44 min.

As to `CC1=CC(=O)N(Nc2nc(-c3ccc(C)s3)nc3scc(-c4cccs4)c23)C1=O`, the 50% growth inhibitory concentration (GI50) came out at 1920 nM in data set [1], 2800 nM in data set [2], 403 nM in data set [3] and 775 nM in data set [4]. For the same compound, the Retention_time in data set [5] worked out at 6.17 min.

With `COCc1sc2nc(-c3cccs3)nc(NN3C(=O)C=C(C)C3=O)c2c1C`, the GI50 worked out at 1260 nM in data set [1], 1780 nM in data set [2], 266 nM in data set [3] and 115 nM in data set [4]. The same compound showed a Retention_time in data set [5] of 10.19 min.

On to `CC1=CC(=O)N(Nc2nc(-c3cccs3)nc3scc(-c4ccccc4)c23)C1=O`, for which the GI50 came to 74 nM in data set [1], 155 nM in data set [2], 758 nM in data set [3] and 233 nM in data set [4]. Further, the Retention_time in data set [5] was 8.39 min.

For `COc1ccc(-c2nc(NN3C(=O)C=C(C)C3=O)c3c(-c4ccccc4)csc3n2)cc1`, the GI50 came out at 703 nM in data set [1], 2200 nM in data set [2], 1310 nM in data set [3] and 407 nM in data set [4]. Moreover, the half-maximal inhibitory concentration (IC50) entry in data set [6] is “Not Active”. The compound further gave a Retention_time in data set [5] of 9.76 min.

As to `NNc1nc(-c2cccs2)nc2scc(-c3cccs3)c12`, the GI50 in data set [1], in data set [2], in data set [3] and in data set [4] was above 10000 nM in each case.

`CC1=CC(=O)N(Nc2nc(-c3cccs3)nc3sc(Cc4ccc(O)cc4)c(C)c23)C1=O`: the GI50 in data set [1] was 880 nM; in data set [2], 948 nM; in data set [3], 213 nM; in data set [4] it was 103 nM.

As to `COc1cc2c(N3CCN(C(=O)Nc4ccc(OC(C)C)cc4)CC3)ncnc2cc1OCCCN1CCCCC1` [TANDUTINIB], the GI50 was above 10000 nM in data set [1], above 10000 nM in data set [2], above 10000 nM in data set [3] and 8760 nM in data set [4].

Turning to `CC1=CC(=O)N(Nc2nc(-c3ccc(N)cc3)nc3scc(-c4ccccc4)c23)C1=O`, the GI50 in data set [1] came to 8160 nM; in data set [2] it was 4110 nM; in data set [3], 3710 nM; in data set [4] it was 2100 nM. In addition, the Retention_time in data set [5] came to 5.16 min.

Regarding `CC1=CC(=O)N(Nc2nc(Cc3ccccc3)nc3scc(-c4cccs4)c23)C1=O`, the GI50 in data set [1] is 3520 nM; in data set [2], 6660 nM; in data set [3] it was 1520 nM; in data set [4], 3830 nM. Besides, the IC50 entry in data set [6] was “Not Active”. The Retention_time in data set [5] was 7.09 min.

For `CC1=CC(=O)N(Nc2nc(-c3cccs3)nc3sc(C(N)=O)c(C)c23)C1=O`, the GI50 in data set [1] is 2780 nM; in data set [2] it was 2690 nM; in data set [3] it was 7800 nM; in data set [4], 193 nM. The Retention_time in data set [5] is on record as 5.72 min.

Regarding `COC(=O)Cc1sc2nc(-c3cccs3)nc(NN3C(=O)C=C(C)C3=O)c2c1C`, the GI50 turned out to be 483 nM in data set [1], 2900 nM in data set [2], 656 nM in data set [3] and 91 nM in data set [4].

With `CC1=CC(=O)N(Nc2nc(-c3ccccc3)nc3scc(-c4cccs4)c23)C1=O`, the GI50 in data set [1] is 6300 nM; in data set [2], 3730 nM; in data set [3], 862 nM; in data set [4] it was 836 nM. Also, the IC50 in data set [6] (read-out: IC50) was found to be 1600 nM. In data set [5], this compound had a Retention_time of 6.15 min.

For the compound `CC1=CC(=O)N(Nc2nc(-c3cccs3)nc3scc(-c4cccs4)c23)C1=O`, the GI50 in data set [1] stood at 5550 nM; in data set [2], 2670 nM; in data set [3] it was 746 nM; in data set [4] it was 320 nM. The IC50 in data set [6] (read-out: IC50) is 69 nM. Also, the Retention_time in data set [5] was found to be 8.11 min.

With `CC1=CC(=O)N(Nc2nc(-c3cccs3)nc3sc(CO)c(C)c23)C1=O`, the GI50 in data set [1] was determined as 3840 nM; in data set [2] it was 2600 nM; in data set [3] it was 712 nM; in data set [4], 92 nM. The compound also showed a Retention_time in data set [5] of 10.19 min.

On to `CC1=CC(=O)N(Nc2nc(Cc3cccs3)nc3scc(-c4cccs4)c23)C1=O`, for which the GI50 in data set [1] is above 10000 nM; in data set [2], 6260 nM; in data set [3], 725 nM; in data set [4] it was 2010 nM. The IC50 entry in data set [6] is listed as “Not Active”.

In the case of `CC1=CC(=O)N(Nc2nc(-c3cccs3)nc3sc(-c4cccc(O)c4)c(C)c23)C1=O`, the GI50 in data set [1] was found to be 3 nM; in data set [2], 107 nM; in data set [3], 383 nM; in data set [4], 123 nM.

As for `CC1=CC(=O)N(Nc2nc(-c3ccc(N(C)C)cc3)nc3scc(-c4ccccc4)c23)C1=O`, the GI50 in data set [1] stood at 1740 nM; in data set [2] it was 1630 nM; in data set [3], 2190 nM; in data set [4], 755 nM. Also, the IC50 entry in data set [6] was “Not Active”. The compound further gave a Retention_time in data set [5] of 10.86 min.

On to `COC(=O)c1sc2nc(-c3cccs3)nc(NN3C(=O)C=C(C)C3=O)c2c1C`, for which the GI50 in data set [1] turned out to be 30 nM; in data set [2], 172 nM; in data set [3], 136 nM; in data set [4] it was 86 nM. For the same compound, in data set [5], the Retention_time was 6.04 min.

For `COc1ccc(-c2sc3nc(-c4cccs4)nc(NN4C(=O)C=C(C)C4=O)c3c2C)cc1`, the GI50 was determined as 154 nM in data set [1], 902 nM in data set [2], 624 nM in data set [3] and 135 nM in data set [4]. For the same compound, the Retention_time in data set [5] is 10.06 min.
